Measured values reported in patent US12302908B2, “Insect neuropeptides 4” (Solasta Bio Limited, priority 2023, dated 2025).

Experiments:
Plutella xylostella [1] = test: Leaf dip assay 1 (IRAC susceptibility test method 018, performed by FERA), mortality; format: in vivo; settings: unformulated peptide at 2×10^−4 M; 2nd/3rd instar larvae on dipped Chinese cabbage leaf discs; mortality assessed after 120 hours; FIG. 4
Protocol: The assay was carried out based on IRAC susceptibility test method 018 by a contract research organization, FERA Science Ltd. Test insects Larvae (2nd/3rd instar) were sourced from a laboratory culture of P. xylostella. The culture has been maintained in a controlled environment (CE) room with conditions of 25° C. and 16:8 lighting regime on Chinese cabbage plants. Chinese cabbage leaves were used in the bioassays. A CE room set at 25° C. and 60% r.h. with a 16 hour light: 8 hours dark lighting regime, was used. Leaf discs (approximately 35 mm in diameter) were cut from fully expanded Chinese cabbage leaves. Each leaf disc was dipped in a separate peptide solution for 10 seconds with gentle agitation and placed on a damp filter paper (underside surface uppermost). There were ten replicates for each treatment and control, with five leaf discs per replicate. The treated discs were then put onto damp filter paper in the base of a Petri dishes (90 mm in diameter, 15 mm high) (underside surface uppermost). Five larvae were then transferred onto the treated leaf discs. The dishes were placed in the CE room and mortality was assessed after 120 hours. Leaf dip assays were performed with SB—P-81, and compared to a negative control vehicle and a current commercial insecticide Gazelle SG (shown as Acetamiprid). […]

Plutella xylostella [2] = test: Leaf dip assay 2 (IRAC susceptibility test method 019), mortality; format: in vivo; settings: unformulated peptide at 1×10^−4 M; dipped leaf disc on agar; after 96 hours; FIG. 6
Protocol: The assay was carried out based on IRAC susceptibility test method 019 (irac-online.org/methods/aphids-adultnymphs/). Fill a small 4 cm wide 3 cm high dish with a 1% agar treatment solution of the active chemical or control (ensuring 1 cm gap between the agar and the lid) and leave to set. Dip a 2.5 cm leaf disc into 3 ml of treatment solution allowing the treatment to coat the leaf. Leave the disc to dry for 1 hour and place onto the set agar. Place insects (Plutella xylostella) onto each of the leaf discs. Each unit is sealed with a close-fitting, ventilated lid. Place the agar dishes in a small plastic tray lined with moist tissue paper and ensure the water trays in the bottom of the incubator are filled with clean water and place within the incubator. An assessment of mortality is made at 72, 96 and 120 hours. Leaf dip assays were performed with SB—P-81, and compared to a negative control vehicle and a current commercial insecticide Chlorantraniliprole. The activity of SB—P-81 is shown in FIG. 6; SB—P-81 has good activity whilst being eco-friendly and targeted to specific pests unlike broad spectrum chemical insecticides such as Chlorantraniliprole.

[Hy]-GGSMTFSPRL-[NH2] (H-GGSMTFSPRL-NH2) [SB—P-81, pyrokinin peptide according to the invention]
activity against Plutella xylostella (mortality), leaf dip assay 1 (Plutella xylostella [1]): good activity
activity against Plutella xylostella (mortality), leaf dip assay 2 (Plutella xylostella [2]): good activity
